Read-outs that look alike come from different tables or passages of the source.
Experiments:
[1] = test system: PI 3-kinase immunoprecipitated from human platelets (p85/110 form); test: In vitro PI 3-kinase assay (Example 8), Platelet IP (p85); format: biochemical; details: read-out: Platelet IP (p85) IC50s
Protocol: The effect of pyridine-substituted compounds on PI 3-kinase activity was determined using an in vitro PI 3-kinase assay. This assay was performed using PI 3-kinase immunoprecipitated from human platelets as the enzyme and PI as the substrate. The PI 3-kinase activity was quantitated by measuring the enzymatic incorporation of [^32P] into PI, forming PI([^32P]-3)P, as previously described (Susa et al., 1992, The Journal of Biological Chemistry 267(32):22951-22956.
Washed human platelets were lysed in Triton X-100 lysis buffer (10 mM Tris, pH 7.4, 1% Triton X-100, 2 mM EDTA, 1 mM PMSF) for 30 minutes. The Triton X-100 insoluble fraction was removed by centrifugation of the cell lysates at 15,000 g for 10 minutes. PI 3-kinase was immunoprecipitated by mixing 500 μg of the cell lysate with 1 μg of a rabbit anti-rat antibody against the p85/110 form of PI 3-kinase and 30 μl of 50% Protein A-sepharose beads for 2 hours at 4° C. The Protein A-sepharose-bound PI 3-kinase was isolated by pelleting the beads at 15,000 g for 5 seconds, and washing three times with ice-cold Triton X-100 lysis buffer followed by four washes with PI 3-kinase assay buffer (20 mM HEPES, pH 7.4, 1 mM EGTA, 5 mM MgCl2).
PI stored in CHCl3 was dried under N2, resuspended in the lipid buffer (50 mM HEPES, pH 7.2, 1 mM EDTA) at a final concentration of 330 μg/ml, and sonicated for 6 minutes on ice. PI([^32P]-3)P was generated by mixing the immunoprecipitated PI 3-kinase for 20 minutes with 40 μl of the PI, 10 μl of ATP (1 mM) and ^32P-r-ATP (0.5 μCi, 1 μCi/nmol), 10 μl of 10× kinase buffer, in a final assay volume of 100 μl adjusted with H2O. TGX-was preincubated with the PI 3-kinase for 5 minutes prior to the addition of ATP. The assay was terminated with 100 μl of 1 N HCl, and the PI([^32P]-3)P product extracted with 200 μl chloroform:methanol (1:1) and 500 μl 2 M KCl. The PI([^32P]-3)P in the chloroform phase was resolved by thin layer chromatography using a solvent system containing CHCl3:MeOH:HAC:H2O (43:38:5:7) (v:v:v:v), and visualized by autoradiography. The PI([^32P]-3)P spots were then scraped off from the TLC plates, deacylated with 1 ml methylamine:butanol:methanol (42:9:47) (v:v:v) for 4 hours at 53° C., and quantitated using a liquid scintillation counter (LKB 1209 RackBETA).

[2] = test system: platelet thrombus formation in citrated whole blood; test: Platelet thrombus formation under flow (Example 12, 600 s^−1); format: cell-based; details: read-out: Inhibition of Thrombus formation Example 12 IC50/
Protocol: Blood was perfused through von Willebrand factor—(vWf) coated microcapillary tubes for 2 minutes at 600 s^−1. Non-adherent cells were removed by perfusion of buffer for 2 minutes at 600 s^−1 and any adherent erythrocytes lysed through treatment with 1% ammonium oxalate. Adherent platelets were then lysed through addition of 1% Triton X-100 and lactate dehydrogenase (LDH) levels (U/L) analysed by spectrophotometry.

U937 cells = test: Cell proliferation assay; format: cell-based; details: Homo sapiens, U-937; read-out: Anti-proliferative activity v. U937 cells Example 16 IC50/
Source text: The cytotoxic activity of the compounds was monitored over four days by counting cell number, and determining cell viability using a colorimetric assay of metabolic activity.

platelet rich plasma = test: CD9-antibody induced platelet aggregation of platelet rich plasma; format: cell-based; details: read-out: Platelet aggregation v. CD9 antibody Example 10 IC50/
Protocol: The inhibitory effect of TGX286 and KN327 on platelet aggregation induced by the antibody CD9 was examined in platelet rich plasma (PRP). A suspension of PRP was incubated with 20-100 nM TGX286 or control buffer (0.1% DMSO) and treated with an aliquot of the antibody. Aggregation under stirring was monitored in a four channel aggregometer for 10 minutes. The level of aggregation was measured as the change in light transmission through the sample cell.

P110 β isoform = target: T1, P110 β isoform (Homo sapiens, UniProt P42338); test: Isoform selective in vitro PI3K enzyme assay (Example 13), β; format: biochemical
T1 construct: The α and β isoforms of the PI3K were immunoprecipitated from a platelet lysate; from tissue; host or cells: washed platelets (lysate, immunoprecipitated with anti-p110β antibody)
T1 sequence (P42338 whole entry, canonical isoform): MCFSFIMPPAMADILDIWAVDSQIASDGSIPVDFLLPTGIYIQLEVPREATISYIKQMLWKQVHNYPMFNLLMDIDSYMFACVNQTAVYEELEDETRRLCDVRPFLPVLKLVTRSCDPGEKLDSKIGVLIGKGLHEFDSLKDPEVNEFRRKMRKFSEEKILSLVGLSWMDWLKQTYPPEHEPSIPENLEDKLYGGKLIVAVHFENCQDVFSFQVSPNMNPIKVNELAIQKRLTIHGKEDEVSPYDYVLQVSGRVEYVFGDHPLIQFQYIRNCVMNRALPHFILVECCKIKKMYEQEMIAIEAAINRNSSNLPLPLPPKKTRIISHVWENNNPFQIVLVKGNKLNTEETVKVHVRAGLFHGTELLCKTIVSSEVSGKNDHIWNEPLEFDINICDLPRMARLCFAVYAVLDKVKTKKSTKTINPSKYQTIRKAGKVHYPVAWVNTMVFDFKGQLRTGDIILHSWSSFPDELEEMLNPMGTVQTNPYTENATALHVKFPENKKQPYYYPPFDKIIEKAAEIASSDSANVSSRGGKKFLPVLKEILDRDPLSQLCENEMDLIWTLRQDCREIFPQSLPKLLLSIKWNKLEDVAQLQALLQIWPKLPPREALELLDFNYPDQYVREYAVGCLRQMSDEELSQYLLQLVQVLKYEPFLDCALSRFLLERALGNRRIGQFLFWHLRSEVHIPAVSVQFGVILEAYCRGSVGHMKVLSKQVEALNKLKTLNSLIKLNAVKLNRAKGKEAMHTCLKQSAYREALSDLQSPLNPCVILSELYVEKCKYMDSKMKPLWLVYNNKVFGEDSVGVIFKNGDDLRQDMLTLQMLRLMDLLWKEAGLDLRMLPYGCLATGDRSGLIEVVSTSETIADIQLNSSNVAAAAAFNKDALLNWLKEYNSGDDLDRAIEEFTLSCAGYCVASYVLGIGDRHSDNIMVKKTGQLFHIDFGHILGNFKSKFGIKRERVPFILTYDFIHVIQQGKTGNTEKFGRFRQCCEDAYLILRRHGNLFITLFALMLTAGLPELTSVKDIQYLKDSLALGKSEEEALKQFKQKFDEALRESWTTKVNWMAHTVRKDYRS
T1 sequence (P27986 whole entry partner, canonical isoform): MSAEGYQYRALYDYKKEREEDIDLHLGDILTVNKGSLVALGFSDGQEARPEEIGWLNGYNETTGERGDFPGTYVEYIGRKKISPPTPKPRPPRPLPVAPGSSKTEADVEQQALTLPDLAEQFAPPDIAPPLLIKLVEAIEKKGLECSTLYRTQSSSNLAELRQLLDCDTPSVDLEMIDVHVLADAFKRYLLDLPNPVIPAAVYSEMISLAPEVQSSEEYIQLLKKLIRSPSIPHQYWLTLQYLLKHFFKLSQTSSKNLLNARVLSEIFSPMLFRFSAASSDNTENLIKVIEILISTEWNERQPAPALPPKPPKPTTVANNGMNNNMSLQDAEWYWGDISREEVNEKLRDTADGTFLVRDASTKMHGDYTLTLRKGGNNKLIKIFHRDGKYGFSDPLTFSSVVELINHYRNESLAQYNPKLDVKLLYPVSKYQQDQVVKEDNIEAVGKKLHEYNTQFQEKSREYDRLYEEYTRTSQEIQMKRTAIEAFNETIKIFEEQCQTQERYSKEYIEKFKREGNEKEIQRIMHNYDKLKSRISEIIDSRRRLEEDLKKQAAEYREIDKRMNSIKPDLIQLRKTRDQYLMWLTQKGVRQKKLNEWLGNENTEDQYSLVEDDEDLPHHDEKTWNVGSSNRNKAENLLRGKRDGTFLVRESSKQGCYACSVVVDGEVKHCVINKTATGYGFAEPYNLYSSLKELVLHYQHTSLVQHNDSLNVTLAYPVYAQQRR
Protocol: (§1) In vitro enzyme assays were conducted as a primary screen to determine drug candidate isoform affinity and specificity. The α and β isoforms of the PI3K were immunoprecipitated from a platelet lysate, using an antibodies obtained from Santa Cruz Biotechnology, that recognized specific regions of p110α (sc-7174) and β (sc-603) isoforms. The γ isoform was produced as a recombinant protein in the Kinacia laboratories. The δ isoform was immunoprecipitated from THP-1 cells in a similar manner using a δ isoform specific antibody (sc-7176). Standard phosphorylation assays using phosphatidylinositol and ^32P were used to measure the enzyme activity in the immunoprecipates in the presence or absence of an inhibitor. Enzyme activity was determined over a range of inhibitor concentrations to establish an IC50 value.

[3] = test system: carotid artery cyclic flow reductions in rat; test: Animal model of internal carotid artery occlusion (Folts); format: in vivo; details: 14.0 mg/kg via the jugular vein
Source text: This model is used to investigate the effects of antithrombotic drugs on clotting time in vivo in response to a crash injury followed by arterial stenosis.
The carotid artery of an anesthetized rat is dissected out, and an electromagnetic flow probe is placed around the artery to measure blood flow. Proximal to the flow probe, the artery is clamped with surgical forceps covered with silicone tubing to cause intimal and medial damage to the vessel wall. A ligature, or plastic cylinder of appropriate inside diameter is laced around the artery to produce a 70% reduction in arterial diameter.
Platelets aggregate in the area of the stenosed and damaged arterial vessel, gradually forming an occlusive platelet thrombus, seen as a decrease in blood flow. As the thrombus forms, blood pressure increases, causing the thrombus to fragment and embolize distal to the stenosed site. […] This causes a sudden restoration of blood flow. Platelets again aggregate in the area of the stenosed and damaged arterial vessel, repeating the thrombus-embolization pattern. This acute, platelet-mediated thrombus formation, followed by embolization, causes Cyclic Flow Reductions (CFR) in blood flow. Once a rat produces regular CFRs, an anti-thrombotic compound or vehicle control is administered via the jugular vein.

washed platelets = test: Flow-based reconstitution assay (platelet adhesion to vWf); format: cell-based; details: 1800 s^−1
Protocol: The platelets and reconstituted red blood cells were perfused through vWf-coated glass microslides for 1 minute at a shear rate of 1800 s^−1. Non-adherent cells were removed by washing for 10 minutes at 1800 s^−1 and the number of adherent platelet were quantitated and expressed as the mean±SEM.

neutrophils = test: Neutrophil ROS response (fmlp, DHR, FACS); format: cell-based, human; details: fmlp stimulation, read-out: ROS release from neutrophils Example 14 IC50/
Protocol: 3 ml of preservative free whole blood was placed in a 50 ml conical tube. 48 ml of erythrocyte lysing solution and gently mixed by inversion for 10 min at 25° C. on a haematology nutator and subsequently centrifuged for 10 min at 350×g at 25° C. in a table top centrifuge. The Leukocyte rich pellet was resuspended in phosphate buffered saline supplemented with […] (PBS-gel) and centrifuged as above. The Leukocyte pellet was washed once with Hanks' balanced salt solution (HBSS) and resuspended at a final cell count of 2×10^6/ml and used immediately.
Reactive Oxygen Species (ROS) generation is one of the hall-marks of neutrophil activation. A number of chemokines and cytokines potentiate ROS generation by neutrophils. […] ROS generation was measured by monitoring the oxidation of intracellular dihydrorhodamine 123 (DHR) via fluorescence activated cell sorting (FACS) by modification of the method of Robinson et al., (pp 9.7.5-9.7.9 in Curr. Protocols in Cytometry (1997)). A Leukocyte suspension was bulk loaded with 2 μl of 50 mM DHR per ml cells ([…]) and incubated at 37° C. for 12 min. […] Fluorescence base-line data was calibrated using these gated control neutrophils. Stimulated cell samples were analysed and linear green fluorescence (DHR) was monitored for 5000 gated neutrophils from each sample. […]

[4] = test system: platelets on immobilized vWf; test: In vitro flow studies: platelet calcium flux and adhesion on immobilized vWf; format: cell-based; details: vWf matrix, shear rate gradient up to 10,000 s^−1 over 1 s
Protocol: The use of an in vitro-flow based adhesion assay enables us to simultaneously analyze platelet adhesion dynamics and activation (by monitoring cytosolic calcium flux) on immobilized von Willebrand factor (vWf). Briefly, isolated platelets are perfused through vWf (100 μg/ml) coated microcapillary tubes and analysis of cytosolic calcium flux conducted in real-time by confocal microscopy.
Washed platelets (1.5×10^9) suspended in PWB were incubated with the calcium indicator dyes, Oregon Green 488 BAPTA-1, AM (1 μM) and Fura Red, AM (1.25 μM), for 30 min at 37° C. Platelets were washed twice with PWB prior to being resuspended in Tyrode's buffer containing 1 mM calcium.
For static adhesion assays, platelets were allowed to settle on the surface of vWf-coated coverslips for 30 min at 37° C. For flow assays, platelets were either perfused over a vWf-coated microcapillary tube at a constant shear rate of 600, 1800 or 10,000 s^−1 or allowed to settle on the surface of a vWf-coated microcapillary tube prior to being accelerated through a shear gradient of 10,000 s^−1 over a 1 s interval. Real time platelet calcium flux in individual platelets was monitored at 1 s intervals over the 30 min incubation period or at 0.586 s intervals for up to 175 s for static and flow-based assays, respectively.

various isoforms of PI3K = test system: T2, various isoforms of PI3K; details: measured IC50 stated to agree with previously reported values; read-out: IC50 against the various isoforms of PI3K; cited from earlier work
T2 construct: The γ isoform was produced as a recombinant protein in the Kinacia laboratories

P110 δ = target: T3, P110 δ (Homo sapiens, UniProt O00329); test: Isoform selective in vitro PI3K enzyme assay (Example 13), δ from THP-1 cells; format: biochemical; details: read-out: P110 δ IC50s
T3 construct: The δ isoform was immunoprecipitated from THP-1 cells; endogenous in cells; host or cells: THP-1 cells (immunoprecipitated with antibody sc-7176)
T3 sequence (O00329 whole entry, canonical isoform): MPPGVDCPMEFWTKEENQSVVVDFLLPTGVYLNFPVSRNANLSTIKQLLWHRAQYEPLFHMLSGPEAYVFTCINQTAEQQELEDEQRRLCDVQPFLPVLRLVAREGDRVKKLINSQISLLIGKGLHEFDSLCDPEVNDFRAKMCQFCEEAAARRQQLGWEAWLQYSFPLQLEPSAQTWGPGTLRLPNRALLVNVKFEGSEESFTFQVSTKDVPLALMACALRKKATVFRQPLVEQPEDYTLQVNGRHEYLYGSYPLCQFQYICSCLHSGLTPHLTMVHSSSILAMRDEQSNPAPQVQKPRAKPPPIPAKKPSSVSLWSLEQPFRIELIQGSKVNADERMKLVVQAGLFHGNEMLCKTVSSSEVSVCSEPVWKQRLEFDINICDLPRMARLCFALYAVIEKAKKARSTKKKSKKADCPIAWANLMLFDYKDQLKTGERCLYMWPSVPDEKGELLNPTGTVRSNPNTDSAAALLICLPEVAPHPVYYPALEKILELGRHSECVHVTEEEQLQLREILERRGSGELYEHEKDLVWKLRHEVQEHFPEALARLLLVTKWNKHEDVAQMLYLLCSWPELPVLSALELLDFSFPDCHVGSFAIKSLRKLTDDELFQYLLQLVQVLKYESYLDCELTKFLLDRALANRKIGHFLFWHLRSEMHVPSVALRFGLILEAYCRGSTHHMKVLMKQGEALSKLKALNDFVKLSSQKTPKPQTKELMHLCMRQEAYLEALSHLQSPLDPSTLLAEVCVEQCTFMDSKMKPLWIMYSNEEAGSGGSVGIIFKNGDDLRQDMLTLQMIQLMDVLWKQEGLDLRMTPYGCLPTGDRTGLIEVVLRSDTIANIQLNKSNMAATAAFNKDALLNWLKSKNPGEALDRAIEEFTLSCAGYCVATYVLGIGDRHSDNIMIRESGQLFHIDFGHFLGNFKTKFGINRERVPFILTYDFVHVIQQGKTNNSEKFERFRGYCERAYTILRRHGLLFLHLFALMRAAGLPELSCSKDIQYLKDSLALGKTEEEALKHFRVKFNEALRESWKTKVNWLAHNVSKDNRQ
T3 sequence (P27986 whole entry partner, canonical isoform): as the sequence (P27986 whole entry partner, canonical isoform) above
Protocol: In vitro enzyme assays were conducted as a primary screen to determine drug candidate isoform affinity and specificity. […] The γ isoform was produced as a recombinant protein in the Kinacia laboratories. […] Standard phosphorylation assays using phosphatidylinositol and ^32P were used to measure the enzyme activity in the immunoprecipates in the presence or absence of an inhibitor. Enzyme activity was determined over a range of inhibitor concentrations to establish an IC50 value.

P110 γ = target: T4, P110 γ (Homo sapiens, UniProt P48736); test: Isoform selective in vitro PI3K enzyme assay (Example 13), γ recombinant; format: biochemical; details: read-out: P110 γ IC50s
T4 construct: made in house
T4 sequence (P48736 whole entry, species assumed, canonical isoform): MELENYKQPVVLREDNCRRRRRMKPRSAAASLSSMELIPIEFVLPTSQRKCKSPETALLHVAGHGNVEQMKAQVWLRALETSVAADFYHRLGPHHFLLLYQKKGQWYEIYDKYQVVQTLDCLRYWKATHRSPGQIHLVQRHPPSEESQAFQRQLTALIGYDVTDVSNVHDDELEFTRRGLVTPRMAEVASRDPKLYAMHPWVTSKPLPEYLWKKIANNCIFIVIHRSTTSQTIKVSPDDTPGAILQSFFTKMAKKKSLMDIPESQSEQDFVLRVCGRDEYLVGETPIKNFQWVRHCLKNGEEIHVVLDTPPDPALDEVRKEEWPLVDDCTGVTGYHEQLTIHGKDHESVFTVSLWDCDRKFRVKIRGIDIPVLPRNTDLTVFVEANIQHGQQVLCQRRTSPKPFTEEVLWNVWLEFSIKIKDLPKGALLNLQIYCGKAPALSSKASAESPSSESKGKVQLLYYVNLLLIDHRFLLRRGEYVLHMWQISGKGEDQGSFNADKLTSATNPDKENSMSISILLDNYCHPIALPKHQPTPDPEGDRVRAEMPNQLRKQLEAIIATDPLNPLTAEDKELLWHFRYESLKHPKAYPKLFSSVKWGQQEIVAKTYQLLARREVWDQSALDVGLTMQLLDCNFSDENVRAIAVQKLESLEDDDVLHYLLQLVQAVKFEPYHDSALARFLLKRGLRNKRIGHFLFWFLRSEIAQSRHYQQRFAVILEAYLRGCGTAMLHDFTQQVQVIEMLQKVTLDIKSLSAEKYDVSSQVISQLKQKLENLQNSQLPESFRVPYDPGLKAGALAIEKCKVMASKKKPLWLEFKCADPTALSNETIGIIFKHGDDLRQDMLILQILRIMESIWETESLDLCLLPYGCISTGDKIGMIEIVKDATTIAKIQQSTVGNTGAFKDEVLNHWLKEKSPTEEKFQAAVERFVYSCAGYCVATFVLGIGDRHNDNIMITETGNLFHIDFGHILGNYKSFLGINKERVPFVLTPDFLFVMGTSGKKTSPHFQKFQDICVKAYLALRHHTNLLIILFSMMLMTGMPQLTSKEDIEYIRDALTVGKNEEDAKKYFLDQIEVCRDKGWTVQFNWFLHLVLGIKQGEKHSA
Protocol: as §1, with “The δ isoform was immunoprecipitated from THP-1 cells in a similar manner using a δ isoform specific antibody (sc-7176).” left out

Molecule: Cc1cc(C(C)Nc2ccccc2)c2oc(-c3ccncc3)cc(=O)c2c1 (stereo not shown) [TGX-286, 8-1-(phenylamino)ethyl-6-methyl-2-(4-pyridinyl)-4H-1-benzopyran-4-one]
- IC50 [1]: 2 nM
- IC50 ([2]; Platelet): 500 nM
- IC50 (U937 cells): 5000 nM
- IC50 (platelet rich plasma): 100 nM
- IC50 (P110 β isoform): 2 nM
- treated animals returned to baseline within 10 minutes [3]: 80%
- decrease in platelet adhesion (washed platelets; 10 nM): 51%
- decrease in platelet adhesion (washed platelets; 25 nM): 67%
- decrease in platelet adhesion (washed platelets; 50 nM): 86%
- IC50 (neutrophils; Homo sapiens, Neutrophil): 5 nM

Molecule: O=c1cc(N2CCOCC2)oc2c(-c3ccccc3)cccc12 [LY294002, 8-phenyl-2-(4-morpholinyl)-4H-benzopyran-4-one, reference compound]
- platelet responses to accelerated shear [4]: eliminates platelet responses to accelerated shear
- IC50 (various isoforms of PI3K): 500 to 1500 nM

Molecule: 8-(1-(2-aminophenylamino)ethyl-2-(4-pyridinyl)-4H-benzopyran-1-one [KN327]
- IC50 (P110 δ): 500 nM
- IC50 [1]: 20 nM
- IC50 [2]: 250 nM
- IC50 (P110 γ): 15000 nM
- IC50 (platelet rich plasma): 200 nM
- treated animals returned to baseline within 10 minutes [3]: 80%
- IC50 (neutrophils): 78 nM
